According to PubChem BioAssay (NCI):
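These data come from cells grown in 96-well plates and exposed to compound for 48 hours at five concentrations. TGI: total growth inhibition.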

Key:
Experiment in all cases: NCI-60 cell line screen, 48 h
[1] = system: EKVX NSCLC
[2] = system: HCC-2998 colon
[3] = system: NCI-H23 lung
[4] = system: SK-OV-3 ovarian
[5] = system: SNB-75 CNS
[6] = system: MOLT-4 leukemia
[7] = system: RXF 393 renal
[8] = system: M14 melanoma
[9] = system: COLO 205 colon
[10] = system: A549 NSCLC
[11] = system: HOP-62 NSCLC
[12] = system: RPMI-8226 leukemia
[13] = system: KM12 colon
[14] = system: T-47D breast
[15] = system: IGROV1 ovarian
[16] = system: HT29 colon
[17] = system: SK-MEL-5 melanoma
[18] = system: NCI-H460 lung
[19] = system: SW-620 colon
[20] = system: BT-549 breast
[21] = system: HS 578T breast
[22] = system: DU-145 prostate
[23] = system: HCT-15 colon
[24] = system: TK-10 renal
[25] = system: CAKI-1 renal
[26] = system: HOP-92 NSCLC
[27] = system: SF-295 CNS
[28] = system: MDA-MB-231 breast
[29] = system: SR leukemia
[30] = system: UACC-257 melanoma
[31] = system: PC-3 prostate
[32] = system: NCI-H226 lung
[33] = system: UO-31 renal
[34] = system: HL-60(TB) leukemia
[35] = system: LOX IMVI melanoma
[36] = system: SK-MEL-28 melanoma
[37] = system: A498 renal
[38] = system: UACC-62 melanoma
[39] = system: SF-539 CNS
[40] = system: SN12C renal
[41] = system: SF-268 CNS
[42] = system: SNB-19 CNS
[43] = system: CCRF-CEM leukemia
[44] = system: HCT-116 colon
[45] = system: MALME-3M melanoma
[46] = system: MDA-MB-435
[47] = system: OVCAR-3 ovarian
[48] = system: NCI-H522 lung
[49] = system: SK-MEL-2 melanoma
[50] = system: MCF7 breast
[51] = system: U251 CNS
[52] = system: MDA-N
[53] = system: OVCAR-5 ovarian
[54] = system: K-562 leukemia
[55] = system: ACHN renal
[56] = system: NCI/ADR-RES ovarian
[57] = system: OVCAR-4 ovarian
[58] = system: OVCAR-8 ovarian
[59] = system: 786-0 renal

Compound: COc1ccc(-c2c(-c3ccccc3)c(C)nc3nc(SC)nc(SC)c23)cc1OC
- TGI [1]: > 100 µM
- TGI [2]: > 100 µM
- TGI [3]: > 100 µM
- TGI [4]: > 100 µM
- TGI [5]: > 100 µM
- TGI [6]: 71.3 µM
- TGI [7]: > 100 µM
- TGI [8]: > 100 µM
- TGI [9]: 27.9 µM
- TGI [10]: > 100 µM
- TGI [11]: 40.5 µM
- TGI [12]: 26.1 µM
- TGI [13]: > 100 µM
- TGI [14]: > 100 µM
- TGI [15]: > 100 µM
- TGI [16]: > 100 µM
- TGI [17]: 27.8 µM
- TGI [18]: 16.2 µM
- TGI [19]: > 100 µM
- TGI [20]: > 100 µM
- TGI [21]: 82.3 µM
- TGI [22]: > 100 µM
- TGI [23]: > 100 µM
- TGI [24]: > 100 µM
- TGI [25]: > 100 µM
- TGI [26]: 48.2 µM
- TGI [27]: 31.5 µM
- TGI [28]: > 100 µM
- TGI [29]: 2.6 µM
- TGI [30]: > 100 µM
- TGI [31]: 41.7 µM
- TGI [32]: 82.9 µM
- TGI [33]: > 100 µM
- TGI [34]: 8.49 µM
- TGI [35]: 33.2 µM
- TGI [36]: > 100 µM
- TGI [37]: 56.9 µM
- TGI [38]: 39.7 µM
- TGI [39]: 23 µM
- TGI [40]: > 100 µM
- TGI [41]: > 100 µM
- TGI [42]: > 100 µM
- TGI [43]: 23.5 µM
- TGI [44]: 32.2 µM
- TGI [45]: 38.5 µM
- TGI [46]: > 100 µM
- TGI [47]: > 100 µM
- TGI [48]: 35.4 µM
- TGI [49]: 60.6 µM
- TGI [50]: > 100 µM
- TGI [51]: 28.3 µM
- TGI [52]: > 100 µM
- TGI [53]: > 100 µM
- TGI [54]: 32 µM
- TGI [55]: > 100 µM

Compound: Cc1cc(Cl)ccc1C(=O)c1ccc2ccccc2c1C(=O)O
- TGI [2]: > 100 µM
- TGI [3]: > 100 µM
- TGI [5]: > 100 µM
- TGI [6]: > 100 µM
- TGI [7]: > 100 µM
- TGI [8]: > 100 µM
- TGI [56]: > 100 µM
- TGI [9]: > 100 µM
- TGI [10]: > 100 µM
- TGI [57]: > 100 µM
- TGI [12]: > 100 µM
- TGI [13]: > 100 µM
- TGI [14]: > 100 µM
- TGI [15]: > 100 µM
- TGI [16]: > 100 µM
- TGI [17]: > 100 µM
- TGI [18]: > 100 µM
- TGI [19]: > 100 µM
- TGI [20]: > 100 µM
- TGI [22]: > 100 µM
- TGI [23]: > 100 µM
- TGI [24]: > 100 µM
- TGI [25]: > 100 µM
- TGI [26]: > 100 µM
- TGI [27]: > 100 µM
- TGI [28]: > 100 µM
- TGI [29]: > 100 µM
- TGI [30]: > 100 µM
- TGI [31]: > 100 µM
- TGI [32]: > 100 µM
- TGI [33]: > 100 µM
- TGI [34]: > 100 µM
- TGI [36]: > 100 µM
- TGI [37]: > 100 µM
- TGI [38]: > 100 µM
- TGI [39]: > 100 µM
- TGI [41]: > 100 µM
- TGI [42]: > 100 µM
- TGI [43]: > 100 µM
- TGI [44]: > 100 µM
- TGI [45]: > 100 µM
- TGI [46]: > 100 µM
- TGI [58]: > 100 µM
- TGI [47]: > 100 µM
- TGI [48]: > 100 µM
- TGI [49]: > 100 µM
- TGI [59]: > 100 µM
- TGI [50]: > 100 µM
- TGI [51]: > 100 µM
- TGI [52]: > 100 µM
- TGI [53]: > 100 µM
- TGI [54]: > 100 µM
- TGI [55]: > 100 µM
